Experimental findings from patent US20010049373A1, “Materials and methods for killing nematodes and nematode eggs” (priority 2000, published 2001) are described below.

Assay [1] concerns gastrointestinal nematodes. The assay is described as follows: Sheep Test I: nematode recovery at necropsy, controlled anthelmintic test efficacy. Format: in vivo. To be noted: for Mean Ct, Abomasum Haemonchus / Mean Ct, Abomasum ostertagia / Mean Ct, Small Intest. Nematodirus / Mean Ct, Small Intestine Trichostrongylus: group mean; for Mean Ct, Abomasum Haemonchus / Mean Ct, Abomasum ostertagia / Mean Ct, Small Intest. Nematodirus / Mean Ct, Small Intestine Trichostrongylus / Worm Counts, Abomasum Haemonchus / Worm Counts, Abomasum ostertagia / Worm Counts, Small Intest. Nematodirus / Worm Counts, Small Intestine Trichostrongylus: necropsy seven days following treatment; for Worm Counts, Abomasum Haemonchus / Worm Counts, Abomasum ostertagia / Worm Counts, Small Intest. Nematodirus / Worm Counts, Small Intestine Trichostrongylus: individual sheep. The method, then: Sheep naturally infected with a variety of gastrointestinal nematodes are purchased from local sources and are transported to the test site. The animals are housed in a manner to preclude further infection by nematode larvae. The animals are evaluated for the presence of adequate nematode burdens by performing a standard fecal egg per gram (EPG) count. Eggs are differentiated into the following groups: trichostrongyle (strongyle), Strongyloides, Trichuris, or Nematodinis. Only sheep judged by the study parasitologist to have adequate nematode infections are retained as test subjects. The sheep are fed good quality hay (no concentrated rations) and water ad libitum. Following a five-day acclimation period, the sheep are randomly assigned by EPG count into treatment groups which include non-treated Negative control (placebo); […] The first replicate of 10 animals is randomly assigned to groups 1-10; the second replicate of 10 animals is randomly assigned to groups 1-10; and the third replicate of 10 animals is randomly assigned to groups 1-10. Thus 10 groups of 3 animals each is created. The placebo (DMSO), the commercially available drug, and the test anthelmintic compounds are administered in a 3 ml volume by subcutaneous injection using a sterile syringe fitted with a proper needle. The animal is adequately immobilized for injection of the placebo, commercially available drug, or test anthelmintic compound. Seven days following treatment the sheep are humanely slaughtered in accordance with the Guide for the Care and Use of Laboratory Animals (DHEW Publication No. 86-23). Necropsy procedures are according to Zimmerman Research SOP # […].99.01, Necropsy for Helminth Recovery, specifically for gastrointestinal nematodes. Fecal samples are taken for EPG counts during the sample collection process on this day. All animals are necropsied, but only the animals from the experimental treatment groups that have a significant egg count reduction on day 5 or day 7 will have intestinal material collected for nematode recovery and identification. Nematodes are recovered, identified, and enumerated according to Zimmerman Research SOP # […].99.01. All individuals performing nematode recoveries are blinded to treatment versus control animals. Preliminary estimates of total nematodes recovered from each gut sample are provided prior to identification and enumerations by the study parasitologist. At the discretion of the study parasitologist, seven days after the drug administration fecal egg counts are performed and all animals showing 90% or better trichostrongylid egg reduction will be slaughtered using humane methods recommended by the AVMA. The neck blood vessels are severed and after the animal is completely exsanguinated, the abdomen are opened. The abomasum, the small and large intestines are tied at the omasal and pyloric openings, the duodenum, the end of the small intestine and at the end of the large intestine. Each section is transferred in a separate bucket containing warm water and is slit open and thoroughly washed. The epithelium is inspected before it is removed. The thus prepared washings are saved in gallon jars. An appropriate preservative is added. If preservative is not available, all the intestinal washing should kept in a refrigerator. These washings are passed through a 100-mesh sieve (pore size […]), and the residue is examined for the presence of worms under a dissecting microscope, Lugol's solution may be used to stain the worms. All worms are picked up counted and identified as to the species. An effort should be made to recover any immature forms present.

Assay [2] deals with gastrointestinal nematodes. The assay is described as follows: Sheep Test II: nematode recovery at necropsy, controlled test efficacy. Format: in vivo. Conditions: for Mean Ct., Abomasum Haemonchus / Mean Ct., Abomasum Ostertagia / Mean Ct., Large Intest. Trichuris / Mean Ct., Small Intest. Nematodirus / Mean Ct., Small Intestine Trichostrongylus: group mean; for Mean Ct., Abomasum Haemonchus / Mean Ct., Abomasum Ostertagia / Mean Ct., Large Intest. Trichuris / Mean Ct., Small Intest. Nematodirus / Mean Ct., Small Intestine Trichostrongylus / Worm Counts, Abomasum Haemonchus / Worm Counts, Abomasum ostertagia / Worm Counts, Large Intest. Trichuris / Worm Counts, Small Intest. Nematodirus / Worm Counts, Small Intestine Trichostrongylus: necropsy seven days following treatment; for Worm Counts, Abomasum Haemonchus / Worm Counts, Abomasum ostertagia / Worm Counts, Large Intest. Trichuris / Worm Counts, Small Intest. Nematodirus / Worm Counts, Small Intestine Trichostrongylus: individual sheep. The method, then:
Sheep naturally infected with a variety of gastrointestinal nematodes are purchased from local sources and are transported to the test site. The animals are housed in a manner to preclude further infection by nematode larvae. The animals are evaluated for the presence of adequate nematode burdens by performing a standard fecal egg per gram (EPG) count. Eggs are differentiated into the following groups: trichostrongyle (strongyle), Strongyloides, Trichuris, or Nematodiris. Only sheep judged by the study parasitologist to have adequate nematode infections are retained as test subjects. The sheep are fed good quality hay (no concentrated rations) and water ad libitum. Following a five day acclimation period, the sheep are randomly assigned by EPG count into the following treatment groups: Groups 1-9, various anthelmintic compounds of the present invention (test compound) dissolved in DMSO: […] Group 11, non-treated Negative control (DMSO only). The first replicate of 1 I animals is randomly assigned to groups 1-1; the second replicate of 11 animals is randomly assigned to groups 1-11; and the third replicate of 11 animals is randomly assigned to groups 1-1. Thus 11 groups of 3 animals each are created. The placebo (DMSO), the commercially available drug, and the test anthelmintic compounds are administered in a 3 ml volume of DMSO by subcutaneous injection using a sterile syringe fitted with a sterile needle. The site of injection is clipped and swabbed with alcohol prior to injection. The animal is adequately immobilized for injection of the placebo, commercially available drug, or experimental compound. Seven days following treatment, all the sheep are weighed and humanely slaughtered in accordance with the Guide for the Care and Use of Laboratory Animals (DHEW Publication No. 86-23). Necropsy procedures are according to Zimmerman Research SOP # […].00.01, Necropsy for Helminth Recovery, specifically for gastrointestinal nematodes. Fecal samples are taken for EPG counts during the sample collection process on this day. Nematodes are recovered, identified, and enumerated according to Zimmerman Research SOP # […].00.01. All individuals performing nematode recoveries are blinded to treatment versus control animals.

Setting [3] is: Ivermectin 200 mcg/kg, vs negative control mean count.
[4] abbreviates: Ivermectin 200 mcg/kg, controlled test procedure.
[5] abbreviates: AKC 109 1.4 mg/kg, vs negative control mean count.

Several values for one entry are separate records, joined by “and”; a condition that tells them apart may be missing. Equal entries are not always repeated.

For 22,23-dihydroavermectin B1 [ivermectin], in assay [1] (setting [3]), the “% Efficacy, Abomasum Haemonchus” value is reported as 100%; the “% Efficacy, Abomasum ostertagia” value turned out to be 100%; the “% Efficacy, Small Intest. Nematodirus” value stood at 100%; the “% Efficacy, Small Intestine Trichostrongylus” value is reported as 100%. Moreover, in assay [1] (Ivermectin 200 mcg/kg), the “Mean Ct, Abomasum Haemonchus” value is listed as 0; the “Mean Ct, Abomasum ostertagia” value was determined as 0; the “Mean Ct, Small Intest. Nematodirus” value amounted to 0; the “Mean Ct, Small Intestine Trichostrongylus” value amounted to 0. Also, in assay [1] (Ivermectin 200 mcg/kg), the “Worm Counts, Abomasum Haemonchus” value was 0; the “Worm Counts, Abomasum ostertagia” value stood at 0; the “Worm Counts, Small Intest. Nematodirus” value is reported as 0; the “Worm Counts, Small Intestine Trichostrongylus” value is 0. In addition, in assay [2] (setting [4]), the “% Efficacy, Abomasum Haemonchus” value came to 86%; the “% Efficacy, Abomasum ostertagia” value was 100%; the “% Efficacy, Small Intest. Nematodirus” value is 98%; the “% Efficacy, Small Intestine Trichostrongylus” value is on record as 100%. Also, in assay [2] (Ivermectin 200 mcg/kg), the “Mean Ct., Abomasum Haemonchus” value was determined as 7; the “Mean Ct., Abomasum Ostertagia” value came out at 0; the “Mean Ct., Large Intest. Trichuris” value is on record as 0; the “Mean Ct., Small Intest. Nematodirus” value is given as 67. In assay [2] (Ivermectin 200 mcg/kg), the “Mean Ct., Small Intestine Trichostrongylus” value worked out at 0; the “Worm Counts, Abomasum Haemonchus” value was 0 (2×) and 20; the “Worm Counts, Abomasum ostertagia” value is 0; the “Worm Counts, Large Intest. Trichuris” value is 0. For the same compound, in assay [2] (Ivermectin 200 mcg/kg), the “Worm Counts, Small Intest. Nematodirus” value is 100 (2×) and 0; the “Worm Counts, Small Intestine Trichostrongylus” value is 0.

With `CCC1CCCCN1c1cc(Oc2ccc3oc4ccccc4c3c2)ncn1` (centres unmarked) [AKC 109], in assay [1] (setting [5]), the “% Efficacy, Abomasum ostertagia” value was 98% and the “% Efficacy, Small Intest. Nematodirus” value is given as 57%. In assay [1] (AKC 109 1.4 mg/kg), the “Mean Ct, Abomasum Haemonchus” value is listed as 507; the “Mean Ct, Abomasum ostertagia” value was found to be 7; the “Mean Ct, Small Intest. Nematodirus” value was found to be 353; the “Mean Ct, Small Intestine Trichostrongylus” value was found to be 233. Moreover, in assay [1] (AKC 109 1.4 mg/kg, 1.4 mg/kg), the “Worm Counts, Abomasum Haemonchus” value is 20 and 1500 and 0; the “Worm Counts, Abomasum ostertagia” value is 20 and 0 (2×); the “Worm Counts, Small Intest. Nematodirus” value is 100 and 500 and 460; the “Worm Counts, Small Intestine Trichostrongylus” value was 540 and 160 and 0. Also, the “% Efficacy, Abomasum Haemonchus” value in assay [2] (AKC 109 .8 mg/kg, controlled test procedure) was 100%. In assay [2] (AKC 109 .8 mg/kg), the “Mean Ct., Abomasum Haemonchus” value is listed as 0; the “Mean Ct., Abomasum Ostertagia” value is given as 690; the “Mean Ct., Large Intest. Trichuris” value stood at 3; the “Mean Ct., Small Intest. Nematodirus” value was 7120. Further, in assay [2] (AKC 109 .8 mg/kg), the “Mean Ct., Small Intestine Trichostrongylus” value is on record as 130; the “Worm Counts, Abomasum Haemonchus” value is 0; the “Worm Counts, Abomasum ostertagia” value was 1100 and 280; the “Worm Counts, Large Intest. Trichuris” value is 5 and 0. Further, in assay [2] (AKC 109 .8 mg/kg), the “Worm Counts, Small Intest. Nematodirus” value was 12020 and 2220; the “Worm Counts, Small Intestine Trichostrongylus” value was 240 and 20.
